Experiment [1] has as its system S. cerevisiae. In words: Antimicrobial effect of extracts and fractions, citrate buffer pH 5. In kind it is cell-based, Saccharomyces cerevisiae. An excerpt:
For further examination of the antimicrobial effect of different extracts alone, i.e. without a combination with component (B) or fractions thereof according to the invention, exemplary extracts or fractions thereof such as described in Examples 1 to 4 were used. […] The samples were inoculated with 3.8×10^4 CFU/mL […].

The subject of experiment [2] is S. cerevisiae. In words: Germ load test of aroma and extract combinations, pure water pH 7. Format: cell-based, Saccharomyces cerevisiae. The settings on record: 400 ppm in sample. The text has this:
(§1) In the scope of a further test, the antimicrobial effect of aroma and extract combinations was examined. […] For example, grape stone extract and the flavouring agent vanillic acid have a different effect against yeasts. In the combination, however, also an effect against fungi and an optimal effect against yeasts was observed. The pomegranate and red berry extract have a lower effect at pH 7 compared to pH 3 (cf. Example 5), the pomegranate extract eliminates S. cerevisiae in less than 14 days at 1000 mg/kg. In combination with Limonene-containing lemon oils, however, the effect can be increased for higher pH values.

The subject of the next experiment is Z. bailii. Described as above. Format: cell-based, Zygosaccharomyces bailii. As to conditions: 400 ppm in sample.
From the text: as §1

The subject of another experiment is C. albicans. Described as above. Format: cell-based, Candida albicans. As to conditions: 400 ppm in sample.
From the text: as §1

Consider `C/C=C/C=C/C(=O)[O-].[K+]` [potassium sorbate], for which, in the experiment on S. cerevisiae [1] (375 mg/kg, pH 5, 28 days), the “Reduction in the germination number of S. cerevisiae (in words)” value is “did not show a significant reduction”. Further, the “Germination number S. cerevisiae after 28 days” value in the experiment with S. cerevisiae [1] (dose 375 mg/kg, citrate buffer pH 5, after inoculation 3.80E+04) turned out to be 1.00E+03 CFU/mL.

For `COc1cc(C(=O)O)ccc1O` [Vanillic acid], the “Elimination of S. cerevisiae in less than (time)” value with S. cerevisiae [2] was below 14 days. The “Elimination of Z. bailii in less than (time)” value in the experiment with Z. bailii was below 24 h. Also, the “Elimination of C. albicans in less than (time)” value in the experiment on C. albicans is below 24 h.
